This is an account of results in ChEMBL document CHEMBL4052690, “2-Chlorophenyl-substituted benzofuro[3,2-b]pyridines with enhanced topoisomerase inhibitory activity: The role of the chlorine substituent” (Bioorg Med Chem Lett, 2017).

For orientation: IC50 means the concentration at which inhibition is half-maximal. A high value points to weaker potency. In general, inhibition refers to the change of the read-out against control, counted positive when it falls.

The species named for assay [1] is Homo sapiens. Put plainly: Inhibition of human recombinant DNA topoisomerase 2 assessed as reduction in enzyme-mediated relaxation of supercoiled pBR322 plasmid DNA at 20 uM in presence of 0.1% BSA by ethidium bromide staining based gel electrophoresis and UV spectroscopy relative to etoposide.
Assay [2] deals with T1, DNA topoisomerase 1 (Homo sapiens) (UniProt P11387).
T1 sequence (whole entry): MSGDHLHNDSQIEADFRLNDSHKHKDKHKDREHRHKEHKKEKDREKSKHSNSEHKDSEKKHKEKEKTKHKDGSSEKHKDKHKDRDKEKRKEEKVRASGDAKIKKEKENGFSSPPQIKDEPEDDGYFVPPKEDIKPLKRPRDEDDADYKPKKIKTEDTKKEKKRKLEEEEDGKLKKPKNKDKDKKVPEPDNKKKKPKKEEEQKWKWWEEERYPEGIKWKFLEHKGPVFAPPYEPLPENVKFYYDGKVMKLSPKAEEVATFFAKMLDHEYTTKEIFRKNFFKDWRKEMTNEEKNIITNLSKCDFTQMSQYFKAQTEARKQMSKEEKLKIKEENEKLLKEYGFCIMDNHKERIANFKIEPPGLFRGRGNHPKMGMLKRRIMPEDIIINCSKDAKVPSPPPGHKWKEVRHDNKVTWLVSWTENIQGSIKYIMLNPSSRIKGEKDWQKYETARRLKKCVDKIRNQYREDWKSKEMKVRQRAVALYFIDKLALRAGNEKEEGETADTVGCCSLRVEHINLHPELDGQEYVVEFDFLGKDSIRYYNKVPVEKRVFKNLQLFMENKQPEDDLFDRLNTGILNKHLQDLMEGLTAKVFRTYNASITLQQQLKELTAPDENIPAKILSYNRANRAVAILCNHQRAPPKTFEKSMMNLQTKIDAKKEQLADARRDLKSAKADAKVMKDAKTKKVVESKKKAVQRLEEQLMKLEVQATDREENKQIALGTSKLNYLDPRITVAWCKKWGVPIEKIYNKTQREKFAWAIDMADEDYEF
The assay is described as follows: Inhibition of human recombinant DNA topoisomerase 1 assessed as reduction in enzyme-mediated relaxation of supercoiled pBR322 plasmid DNA at 100 uM in presence of 0.1% BSA by ethidium bromide staining based gel electrophoresis and UV spectroscopy relative to camptothecin.

In assay [3] the test system is T47D. Put plainly: Antiproliferative activity against human T47D cells after 72 hrs by CCK8 assay. The format is functional, cell-based. In general terms: Tetrazolium assays rely on reduction of a dye to a coloured formazan, in cell work by metabolically active cells.
The target in assay [4] is T1, DNA topoisomerase 1 (Homo sapiens). The assay is described as follows: Inhibition of human recombinant DNA topoisomerase 1 assessed as reduction in enzyme-mediated relaxation of supercoiled pBR322 plasmid DNA at 100 uM in presence of 0.1% BSA by ethidium bromide staining based gel electrophoresis and UV spectroscopy.
Assay [5] is filed under the species Homo sapiens. The assay is described as follows: Inhibition of human recombinant DNA topoisomerase 2 assessed as reduction in enzyme-mediated relaxation of supercoiled pBR322 plasmid DNA at 100 uM in presence of 0.1% BSA by ethidium bromide staining based gel electrophoresis and UV spectroscopy.
For assay [6], the species on record is Homo sapiens. The assay is described as follows: Inhibition of human recombinant DNA topoisomerase 2 assessed as reduction in enzyme-mediated relaxation of supercoiled pBR322 plasmid DNA at 100 uM in presence of 0.1% BSA by ethidium bromide staining based gel electrophoresis and UV spectroscopy relative to etoposide.
For assay [7], the species on record is Homo sapiens. The assay is described as follows: Inhibition of human recombinant DNA topoisomerase 2 assessed as reduction in enzyme-mediated relaxation of supercoiled pBR322 plasmid DNA at 20 uM in presence of 0.1% BSA by ethidium bromide staining based gel electrophoresis and UV spectroscopy.
Assay [8] relates to HCT-15. Put plainly: Antiproliferative activity against human HCT15 cells after 72 hrs by CCK8 assay. Format: functional, cell-based. To be noted: HCT-15, 72 h.
Assay [9] has as its system HeLa. The assay is described as follows: Antiproliferative activity against human HeLa cells after 72 hrs by CCK8 assay. Format: functional, cell-based.

Structures can show the parent of a compound that is named as a salt.

In the case of `Clc1ccc(-c2cc(-c3ccccc3Cl)nc3c2oc2ccccc23)o1`, the fold change (FC) in assay [1] was 0.94; in [2], 1.15; in assay [6] it was 1.64. For the same compound, the IC50 in assay [3], in assay [8] and in assay [9] was greater than 50 µM in each case. For the same compound, the inhibition came out at 100% in assay [4], 86% in [5] and 29.5% in [7].
In the case of `Clc1cccc(-c2cc(-c3ccc(Cl)o3)c3oc4ccccc4c3n2)c1`, the fold change (FC) in assay [1] was 1.13; in assay [2] it was 1.15; in [6] it was 1.86. The IC50 in assay [3] was 7.47 µM; in assay [8] it was 5.47 µM; in [9], 18.2 µM. Moreover, the inhibition in assay [4] worked out at 100%; in [5], 97.3%; in assay [7], 35.5%.
For `CC[C@@]1(O)C(=O)OCc2c1cc1n(c2=O)Cc2cc3ccccc3nc2-1` [CAMPTOTHECIN], the IC50 stood at 2.31 µM in assay [3] and 2.62 µM in assay [9].
For `Clc1cccc(-c2cc(-c3ccoc3)c3oc4ccccc4c3n2)c1`, the fold change (FC) in assay [1] was found to be 1.6; in [2], 0.97; in [6], 1.65. In addition, the half-maximal inhibitory concentration (IC50) in assay [3] is 18.1 µM; in assay [8], 17.6 µM; in [9], 41.1 µM. Also, the inhibition in [4] came to 84.3%; in assay [5], 86.1%; in assay [7], 50.4%.
As to `Clc1ccc(-c2cc(-c3ccccc3)c3oc4ccccc4c3n2)cc1`, the fold change (FC) in assay [1] was determined as 0.48; in assay [2], 1.15; in [6], 1.19. In addition, the IC50 in assay [3], in assay [8] and in assay [9] was greater than 50 µM throughout. The results for the inhibition in [4], in assay [5] and in assay [7] were 100%, 78.2% and 17.6%, respectively.
With `Clc1ccccc1-c1cc(-c2ccsc2)c2oc3ccccc3c2n1`, the fold change (FC) turned out to be 2.33 in [1], 1.15 in assay [2] and 1.52 in [6]. In addition, the IC50 in assay [3] is 25.5 µM; in assay [8], 10.6 µM; in assay [9] it was greater than 50 µM. Besides, the inhibition in assay [4] amounted to 100%; in assay [5], 100%; in [7], 85.8%.
With `Clc1ccccc1-c1cc(-c2ccoc2)c2oc3ccccc3c2n1`, the fold change (FC) stood at 0.46 in [1], 0.63 in assay [2] and 1.59 in assay [6]. Besides, the 50% inhibitory concentration (IC50) in assay [3] worked out at 19.4 µM; in [8] it was 20.6 µM; in assay [9], 13.3 µM. The inhibition in assay [4] turned out to be 54.6%; in [5], 83.2%; in assay [7], 14.6%.
Turning to `Clc1ccccc1-c1cc(-c2cccs2)c2oc3ccccc3c2n1`, the fold change (FC) in assay [1] was 0.29; in assay [2] it was 1.08; in assay [6] it was 0.97. Further, the IC50 in assay [3] is greater than 50 µM; in assay [8], 16.1 µM; in assay [9], 21.7 µM. Besides, the inhibition in assay [4] was 93.4%; in assay [5], 64.1%; in assay [7], 10.8%.
For `COc1cc([C@@H]2c3cc4c(cc3[C@@H](O[C@@H]3O[C@@H]5CO[C@@H](C)O[C@H]5[C@H](O)[C@H]3O)[C@H]3COC(=O)[C@H]23)OCO4)cc(OC)c1O` [ETOPOSIDE], the inhibition was 52.3 to 66% in assay [5] and 31.5 to 36.8% in assay [7]. Moreover, the results for the half-maximal inhibitory concentration (IC50) in assay [8] and in [9] were 9.27 µM and 4.12 µM, respectively.
As for `COc1cccc2c1C(=O)c1c(O)c3c(c(O)c1C2=O)C[C@@](O)(C(=O)CO)C[C@@H]3O[C@H]1C[C@H](N)[C@H](O)[C@H](C)O1` [DOXORUBICIN HYDROCHLORIDE], the results for the IC50 in assay [3], in assay [8] and in [9] were 1.29 µM, 0.94 µM and 2.77 µM, respectively.
